Source: patent US9206124B2, “Treatment of drug-resistant cancer with 2-aryl-2-(3-indolyl) acetohydroxamates” (New Mexico Technical Research Foundation, priority 2013, dated 2015)
Read-outs that look alike come from different tables or passages of the source.

Key:
[1] = tested on: MCF-7 breast adenocarcinoma cells; experiment: MTT antiproliferative assay, MCF-7; format: cell-based; conditions: Homo sapiens, ± SD, read-out: cell viability GI50, MCF7
Source text: (§1) This finding led to an exploration of the SAR analyses by synthesizing the first generation compounds 3 containing diverse substituents at different positions in the 2-aryl-2-(3-indolyl)acetohydroxamate skeleton and testing this series for in vitro growth inhibition using the MTT colorimetric assay against two cell lines, human HeLa cervical and MCF-7 breast adenocarcinomas (Table 1). It emerged from these experiments that the substitution on the benzene ring of the indole moiety (R^2≠H) was not tolerated (e.g., 3abfa and 3acfa), whereas the nitrogen could be derivatized (R^1≠H) with only a small activity drop (e.g., 3bafa vs 3aafa).
(§2) Human cancer cell lines were obtained from the American Type Culture Collection (ATCC, Manassas, Va., USA), the European Collection of Cell Culture (ECACC, Salisbury, UK) and the Deutsche Sammlung von Mikroorganismen and Zellkulturen (DSMZ, Braunschweig, Germany). Human cervical adenocarcinoma HeLa cells were cultured in DMEM supplemented with 10% fetal bovine serum (FBS). Human mammary carcinoma MCF-7 cells were cultured in RPMI supplemented with 10% FBS. The U87 cells (ATCC HTB-14) were cultured in DMEM culture medium, while the A549 cells (DSMZ ACC107) were cultured in RPMI culture medium supplemented with 10% heat-inactivated FBS. The glioblastoma multiforme Hs683 (ATCC HTB-138) and the T98G (ATCC CRL-1690) cell lines were cultivated in DMEM supplemented with 10% FBS. The Human uterine sarcoma MES-SA and MES-SA/Dx5 cells were cultured in RPMI-1640 medium supplemented with 10% FBS with MES SA/Dx5 maintained in the presence of 500 nM Doxorubicin (Sigma). SKMEL-28 cells (ATCC HTB72) and U373 glioblastoma cells (ECACC 08061901) were cultured in RPMI culture medium supplemented with 10% heat-inactivated FBS. Cell culture media were supplemented with 4 mM glutamine (Lonza code BE17-605E), 100 μg/mL gentamicin (Lonza code 17-5182), and penicillin-streptomycin (200 units/ml and 200 μg/ml) (Lonza code 17-602E). Neurosphere culture GBM 031810 was established using known methods and maintained in Neurobasal medium (Invitrogen Carlsbad, Calif.) with B27 supplement (20 ul/ml; Invitrogen), Glutamax (10 ul/ml; Invitrogen), fibroblast growth factor-2 (20 ng/ml; Peprotech, Rocky Hill, N.J., USA), epidermal growth factor (20 ng/ml; Peprotech), heparin (32 IE/ml; Sigma Aldrich, St. Louis, Mo.), and penicillin-streptomycin (1×, Invitrogen). Growth factors and heparin were renewed twice weekly. All cell lines were cultured in T25 flasks, maintained and grown at 37° C., 95% humidity, 5% CO2.
(§3) Antiproliferative properties of the synthesized compounds were evaluated by the MTT assay. All compounds were dissolved in DMSO at a concentration of either 100 mM or 50 mM prior to cell treatment. The cells were trypsinized and seeded at 4×10^3 cells per well into 96-well plates. The cells were grown for 24 h, treated with compounds at concentrations ranging from 0.001 to 100 μM and incubated for 48 h in 200 μL media. 20 μL of MTT reagent in serum free medium (5 mg/mL) was added to each well and incubated further for 2 h. Media was removed and the resulting formazan crystals were re-solubilized in 200 μL of DMSO. A490 was measured using a Molecular Devices Thermomax plate reader. The experiments were performed in quadruplicate and repeated at least twice for each compound per cell line. Cells treated with 0.1% DMSO were used as a negative control; 1 μM phenyl arsine oxide (PAO) was used as a positive control.

[2] = tested on: HeLa cervical adenocarcinoma cells; experiment: MTT antiproliferative assay, HeLa; format: cell-based; conditions: Homo sapiens, ± SD, read-out: cell viability GI50, HeLa
Source text: as §1, §2, §3

U87 glioblastoma cells = experiment: MTT antiproliferative assay, U87; format: cell-based, human; conditions: FIG. 3; concentrations up to 100 μM
Experimental: (§4) As part of the ongoing efforts aimed at identification of compounds active against cancer cells displaying resistance to proapoptotic agents, the selected 2-aryl-2-(3-indolyl)-acetohydroxamates were evaluated for in vitro growth inhibition against a panel of additional cancer cell lines including those resistant to various proapoptotic stimuli, such as human T98G and U87 glioblastoma and human A549 non-small-cell-lung cancer (NSCLC), as well as an apoptosis-sensitive tumor model, such as human Hs683 anaplastic oligodendroglioma, used as a reference. The data reveal that for the most part these compounds retain the single-digit antiproliferatve GI50 values in this challenging cancer cell panel.
as §2, §3

[3] = tested on: A549 non-small-cell-lung cancer cells; experiment: MTT antiproliferative assay, A549; format: cell-based, human; conditions: FIG. 3; concentrations up to 100 μM
Experimental: as §4, §2, §3

[4] = tested on: MES-SA uterine sarcoma cells; experiment: MTT antiproliferative assay, MES-SA; format: cell-based; conditions: Homo sapiens, 48 h treatment, ± SD, read-out: GI50 in vitro, MES-SA
Experimental: Compared with the intrinsic drug resistance, as described above for such cancers as glioblastoma and melanoma, a large variety of tumors can also develop resistance to anticancer drugs resulting in MDR as explained previously. To assess whether the hydroxamates can overcome this resistance mechanism, selected hydroxamates were tested against MDR cells (Table 4). The MDR uterine sarcoma cell line MES-SA/Dx5 was utilized for this experiment. This cell line was established from the parent uterine sarcoma MES-SA, grown in the presence of increasing concentrations of doxorubicin and known to be resistant to a number of P-gp substrates. […] In contrast, there was only a small variation in the sensitivities of the two cell lines towards the hydroxamates indicating their potential to overcome clinical multi-drug resistance.
as §2, §3

[5] = tested on: HeLa cervical and MCF-7 breast adenocarcinomas; experiment: In vitro growth inhibition (MTT); format: cell-based, human; conditions: HeLa and MCF-7
Source text: as §1, §3

[6] = tested on: MES-SA/Dx5 MDR uterine sarcoma cells; experiment: MTT antiproliferative assay, MDR MES-SA/Dx5; format: cell-based, human
Experimental: Compared with the intrinsic drug resistance, as described above for such cancers as glioblastoma and melanoma, a large variety of tumors can also develop resistance to anticancer drugs resulting in MDR as explained previously. To assess whether the hydroxamates can overcome this resistance mechanism, selected hydroxamates were tested against MDR cells (Table 4). The MDR uterine sarcoma cell line MES-SA/Dx5 was utilized for this experiment. This cell line was established from the parent uterine sarcoma MES-SA, grown in the presence of increasing concentrations of doxorubicin and known to be resistant to a number of P-gp substrates.
as §2, §3
Selection of the MES-SA/Dx5 cell line was done according to W. G. Harker and B. I. Sikic, Cancer Res. 1985, p. 45, 4091. The cells were split and allowed to adhere overnight. […] The cells were maintained at this DOX concentration until their growth rate reached that of the untreated cells.

Compound	GI50 ([1]; MCF7, Table 2, 48 h treatment) [µM]	GI50 ([2]; Table 2, 48 h treatment) [µM]	GI50 ([1]; MCF7, Table 1, 48 h treatment) [µM]	GI50 ([2]; Table 1, 48 h treatment) [µM]	further results
O=C(NO)C(c1ccccc1Cl)c1c(-c2ccc3ccccc3c2)[nH]c2ccccc12 (centres unmarked) [Compound 3aafh]	4.9 ± 0.1	31 ± 0.2	–	–	–
COc1ccc(C(C(=O)NO)c2c(-c3ccc4ccccc4c3)[nH]c3ccccc23)cc1OC (centres unmarked) [Compound 3aaff]	2.4 ± 0.1	26.9 ± 0.3	–	–	–
O=C(NO)C(c1ccc(OC(F)(F)F)cc1)c1c(-c2ccc3ccccc3c2)[nH]c2ccccc12 (centres unmarked) [Compound 3aafj]	10.2 ± 0.1	27.4 ± 0.2	–	–	–
CC(=O)O[C@H]1C(=O)[C@@]2(C)[C@H]([C@H](OC(=O)c3ccccc3)[C@]3(O)C[C@H](OC(=O)[C@H](O)[C@@H](NC(=O)c4ccccc4)c4ccccc4)C(C)=C1C3(C)C)[C@]1(OC(C)=O)CO[C@@H]1C[C@@H]2O [Taxol, reference compound]	–	–	–	–	cells whose proliferation is not affected, U87 (U87 glioblastoma cells): ca. 50%; cells whose proliferation is not affected, A549 [3]: ca. 50%; GI50 [4]: 0.007 ± 0.001 µM
Cc1[nH]c2ccccc2c1C(C(=O)NO)c1ccccc1 (centres unmarked) [Compound 3aada]	–	–	> 50	> 50	–
O=C(NO)C(c1ccccc1)c1c(-c2cccc3ccccc23)[nH]c2ccccc12 (centres unmarked) [Compound 3aaea]	–	–	32 ± 0.9	25.7 ± 1.6	–
O=C(NO)C(c1ccc([N+](=O)[O-])cc1)c1c(-c2ccccc2)[nH]c2ccccc12 (centres unmarked) [Compound 3aaab]	–	–	> 50	> 50	–
O=C(NO)C(c1ccccc1)c1c(-c2ccccc2)[nH]c2ccccc12 (centres unmarked) [Compound 3aaaa]	–	–	31 ± 0.6	23 ± 2.6	antiproliferative potency (GI50) [5]: double-digit micromolar
COc1ccc(-c2[nH]c3ccccc3c2C(C(=O)NO)c2ccccc2)cc1 (centres unmarked) [Compound 3aaca]	–	–	> 50	> 50	–
COc1cc([C@@H]2c3cc4c(cc3[C@H](O)[C@H]3COC(=O)[C@H]23)OCO4)cc(OC)c1OC [podophyllotoxin, reference compound]	–	–	–	–	cells whose proliferation is not affected, U87 (U87 glioblastoma cells): ca. 50%; cells whose proliferation is not affected, A549 [3]: ca. 50%
O=C(NO)C(c1ccccc1)c1c(-c2ccccc2[N+](=O)[O-])[nH]c2ccccc12 (centres unmarked) [Compound 3aaba]	–	–	> 50	> 50	–
O=C(NO)C(c1ccc(Cl)c(Cl)c1)c1c(-c2ccc3ccccc3c2)[nH]c2ccccc12 (centres unmarked) [Compound 3aafi]	12.2 ± 1	31.7 ± 1.7	–	–	–
O=C(NO)C(c1ccccc1Br)c1c(-c2ccc3ccccc3c2)[nH]c2ccccc12 (centres unmarked) [Compound 3aafd]	2.7	13 ± 0.4	–	–	–
O=C(NO)C(c1ccc(F)cc1)c1c(-c2ccc3ccccc3c2)[nH]c2ccccc12 (centres unmarked) [Compound 3aafg]	6.3 ± 1.1	18.2 ± 0.9	–	–	–
CC[C@]1(O)C[C@@H]2CN(CCc3c([nH]c4ccccc34)[C@@](C(=O)OC)(c3cc4c(cc3OC)N(C)[C@H]3[C@@](O)(C(=O)OC)[C@H](OC(C)=O)[C@]5(CC)C=CCN6CC[C@]43[C@@H]65)C2)C1 [Vinblastine, reference compound]	–	–	–	–	GI50 ([6]; Homo sapiens, MES-SA/Dx5, 48 h treatment, MTT, ± SD, MDR line, read-out: GI50 in vitro, MES-SA/Dx5): 5 ± 1.4 µM; change in potency, MDR MES-SA/Dx5 versus parent MES-SA ([6]; MDR line compared with parent line): more than a thousand fold drop in potency; GI50 [4]: 0.006 ± 0.001 µM
O=C(NO)C(c1cccc(F)c1)c1c(-c2ccc3ccccc3c2)[nH]c2ccccc12 (centres unmarked) [Compound 3aafc]	20.4 ± 0.1	32.9 ± 1.1	–	–	–

Now from value to compound, other results behind:

GI50 ([1]; MCF7, Table 2, 48 h treatment) [µM]	GI50 ([2]; Table 2, 48 h treatment) [µM]	GI50 ([1]; MCF7, Table 1, 48 h treatment) [µM]	GI50 ([2]; Table 1, 48 h treatment) [µM]	Compound	further results
–	–	10 ± 0.3	19.7 ± 1.7	Cn1c(-c2ccc3ccccc3c2)c(C(C(=O)NO)c2ccccc2)c2ccccc21 (centres unmarked) [Compound 3bafa]	–
7.9 ± 0.7	4.1 ± 0.2	–	–	CCN(CC)c1ccc(C(C(=O)NO)c2c(-c3ccc4ccccc4c3)[nH]c3ccccc23)cc1 (centres unmarked) [Compound 3aafo]	antiproliferative potency (GI50) [5]: single-digit micromolar
–	–	> 50	> 50	COc1ccc2[nH]c(-c3ccc4ccccc4c3)c(C(C(=O)NO)c3ccccc3)c2c1 (centres unmarked) [Compound 3acfa]	–
4.9 ± 0.2	6.3 ± 1.3	–	–	Cc1ccc(C(C(=O)NO)c2c(-c3ccc4ccccc4c3)[nH]c3ccccc23)cc1 (centres unmarked) [Compound 3aafm]	antiproliferative potency (GI50) [5]: single-digit micromolar
8.5 ± 0.3	17.3 ± 0.2	–	–	CCOc1ccc(C(C(=O)NO)c2c(-c3ccc4ccccc4c3)[nH]c3ccccc23)cc1 (centres unmarked) [Compound 3aafl]	–
7.7 ± 0.4	6.6 ± 0.5	–	–	CCCCn1c(-c2ccc3ccccc3c2)c(C(C(=O)NO)c2ccc(C(C)C)cc2)c2ccccc21 (centres unmarked) [Compound 3cafe]	antiproliferative potency (GI50) [5]: single-digit micromolar
9.3 ± 0.3	9.8 ± 0.8	–	–	CCC(C)n1c(-c2ccc3ccccc3c2)c(C(C(=O)NO)c2ccccc2)c2ccccc21 (centres unmarked) [Compound 3dafa]	antiproliferative potency (GI50) [5]: single-digit micromolar
–	–	> 50	> 50	Cc1ccc2[nH]c(-c3ccc4ccccc4c3)c(C(C(=O)NO)c3ccccc3)c2c1 (centres unmarked) [Compound 3abfa]	–
–	–	25.7 ± 1.4	36.8 ± 0.4	Cn1c(-c2ccc3ccccc3c2)c(C(C(=O)NO)c2cccc(F)c2)c2ccccc21 (centres unmarked) [Compound 3bafc]	–
–	–	11.2 ± 0.9	24 ± 0.2	Cn1c(-c2ccc3ccccc3c2)c(C(C(=O)NO)c2ccccc2Br)c2ccccc21 (centres unmarked) [Compound 3bafd]	–
7.4 ± 0.6	6.9 ± 0.4	–	–	Cc1cccc(C(C(=O)NO)c2c(-c3ccc4ccccc4c3)[nH]c3ccccc23)c1 (centres unmarked) [Compound 3aafn]	antiproliferative potency (GI50) [5]: single-digit micromolar
